Drawing on patent publication US12358921B2, “Antiviral heterocyclic compounds” (priority 2022, dated 2025), this text covers EC50 for 26 compounds.

Assay [1] concerns HUMAN RSV-A (“LONG” STRAIN). In words: RSV-A assay (CPE, ATPlite) in Hep-2 cells. The class given is cell-based. The following applies: human respiratory syncytial virus, 120 h, MOI 0.1, 5-day incubation. The source says:
Methods for RSV-A Assay Hep-2 cells, (originally derived from tumors grown in irradiated-cortisonised weanling rats that had been injected with epidermoid carcinoma tissue from the larynx of a person, but later found to be indistinguishable from HeLa cells by PCR DNA analysis), were used for the culturing of genotype A, “Long” strain RSV. Flasks were inoculated with RSV and viral stocks were collected once cytopathic effect (CPE) was greater than 90%. Viral stocks in 25% sucrose media were snap frozen using liquid nitrogen to increase viral stability. Viral stock titers were quantified by tissue culture infectious dose 50% (TCID50) using 8,000 cells per well and 3-fold viral dilutions across a 96-well plate, cultured for 4 days. Viral stock titers were also quantified by a plaque forming unit assay, as described elsewhere.
Following extensive parameter testing, the final assay is run as follows: Hep-2 cells are seeded into the inner 60 wells of a 96-well plate at 8,000 cells per well in a volume of 50 μL using Growth Media (DMEM without phenol red, 1% L-Glut, 1% Penn/Strep, 1% nonessential amino acids, 10% heat-inactivated FBS). 2-fold serial dilutions of control and test compounds are added to the wells in duplicate in a total volume of 25 μL. Viral stock is then added to the wells at a multiplicity of infection (MOI) of 0.1 in a volume of 25 μL, bringing the total volume of each well to 100 μL. The MOI is calculated using the PFU/mL, or TCID50 if unavailable. Each 96-well plate has a control column of 6 wells with cells and virus but no compound (negative control, max CPE), a column with cells but no compound or virus (positive control, minimum CPE), and a column with no cells or virus or compound (background plate/reagent control). The control wells with cells but no virus are given an additional 25 μL of growth media containing an equal quantity of sucrose as those wells receiving the viral stock in order to keep consistent in media and volume conditions. The outer wells of the plate are filled with 125 μL of moat media (DMEM, 1% Penn/Strep) to act as a thermal and evaporative moat around the test wells. Following a 5-day incubation period, the plates are read using ATPlite (50 uL added per well), which quantifies the amount of ATP (a measure of cell health) present in each well. Assay plates are read using the Envision luminometer. […] EC50 ranges are as follows: A<0.2 μM; B>0.2 μM.

The subject of a further assay is hMPV A2 TN/94-49. Put plainly: HMPV antiviral assay Method 2 (LLC-MK2 cells with CP-100-356, ATP-Lite). The class given is cell-based. The conditions noted are these: hMPV A2 TN/94-49, LLC-MK2 cells, 4 μM CP-100-356, Method 2. The protocol: In vitro HMPV antiviral activity was evaluated using the clinical isolate A2 strain TN 94-49 (obtained from Dr. John Williams, Vanderbilt University, Tennessee) and LLC-MK2 cells (Millipore Sigma CB_85062804), an immortalized kidney epithelial cell line from Macaca mulatta. Compounds were resuspended in dimethyl sulfoxide (DMSO) at 10 mM, serially diluted and added to a 384-well source plate. Subsequently, the compounds were diluted and transferred onto 384-well assay plates using the Echo-650 automated liquid handling system (Beckman Coulter, Indiana). The test compounds were assessed in duplicate at a top concentration of 200 nM followed by 2.5-fold serial dilutions to give a total of 10 concentration points. DMSO control wells were also included on the assay plates and were either infected or not, acting as positive and negative controls. A2 TN 94-49 virus infections were performed in-suspension with LLC-MK2 cells. The cells were washed twice with PBS and removed from the cell-culture flask with 0.25% trypsin-EDTA (Thermo Fisher Scientific, MA). The trypsin-EDTA was inactivated by resuspending in 2% fetal bovine serum (FBS) and OptiMEM (ThermoFisher Scientific, MA) containing 1% antibiotic-antimycotic. Cells were pelleted by centrifuging for 5 minutes at 800 rpm, the supernatant was removed, and cells were re-suspended and washed in PBS plus 100 μg/mL CaCl2). This step was performed twice. Cells were then re-suspended in serum-free (SF)-OptiMEM containing 4 μg/mL TPCK-Trypsin (Sigma Aldrich, MO), 1% antibiotic-antimycotic (ThermoFisher Scientific, MA), 100 μg/mL CaCl2), and 4 μM of CP-100-356, a P-glycoprotein inhibitor. Cells were counted and seeded at a density of 5,000 cells/well, 12.5 μL/well. Virus infections were done at a multiplicity of infection (MOI) of 0.16 with 12.5 μL added per well. Virus infections were performed in infection media which contained SF-OptiMEM, 100 μg/mL CaCl2) and 1% antibiotic-antimycotic. HMPV viral stocks are suspended in infection media+5% glycerol, thus an equal volume of infection media+5% glycerol was added to uninfected wells to equalize the final % glycerol across all wells of the assay plate. The final concentration of TPCK-trypsin was 2 μg/mL. The final concentration of CP-100-356 was 2 μM. The assay plates were incubated at 37° C., 5% CO2 for 7 days. After 7 days incubation, 12.5 μL of ATP-Lite (PerkinElmer, MA) was added to each well and the raw luminescence values were determined using the Envision 2104 (Perkin Elmer, MA). The average of the raw luminescence values for the cells and virus only positive control wells was subtracted from all conditions tested and the percent cell health was determined by dividing these values by the average of the cells only negative control wells. EC50 values were then calculated by non-linear regression using a four-parameter curve logistic equation. The curve fit model employed was XLFit Dose Response One Site Model 200: y=(A+(B/(1+((x/C)^D)))), where A is the minimum y value, B is the maximum y value, C is the log EC50value, and D is the slope factor.

SMILES strings stand for the structures. pEC50: −log10 of the molar value. Some results are limits rather than exact numbers.

For `COc1cc(C(=O)NC[C@@](O)(c2ccccc2)c2cc3c(c(-c4cccc(Cl)c4F)n2)OC[C@]3(C)C(N)=O)cc2cn(C3(F)CC3)nc12` [Example 369], the pEC50 (in assay [1]; in the assay on hMPV A2 TN/94-49) was above 6.70 in each case.

For `COc1cc(C(=O)NC[C@@](O)(c2cccc(S(N)(=O)=O)c2)c2cc3c(c(-c4cc(Cl)c(F)cc4F)n2)OC[C@]3(C)C(N)=O)cc2cn(C3CC3)nc12` [Example 486], the figures for the pEC50 (in assay [1]; in the assay with hMPV A2 TN/94-49) were above 6.70 and below 6.70, respectively.

As for `C[C@]1(C(N)=O)COc2c1cc([C@@](O)(CNC(=O)c1cc(OC3CC3)c3ncc(Cl)cc3c1)c1ccccc1)nc2-c1cc(F)c(F)cc1F` [Example 197], the pEC50 (in assay [1]; with hMPV A2 TN/94-49) was above 6.70 in each case.

In the case of `COc1cc(C(=O)NC[C@@](O)(c2cccc(Cl)n2)c2cc3c(c(-c4cc(Cl)c(F)cc4F)n2)OC[C@]3(C)C(N)=O)cc2cn(C3CC3)nc12` [Example 489], the pEC50 (in assay [1]; in the assay on hMPV A2 TN/94-49) was above 6.70 in each case.

Consider `COc1cc(C(=O)NC[C@@](O)(c2cccc(F)n2)c2cc3c(c(-c4cc(Cl)c(F)cc4F)n2)OC[C@]3(C)C(N)=O)cc2cn(C(F)F)nc12` [Example 205], for which the pEC50 (in assay [1]; in the assay on hMPV A2 TN/94-49) was above 6.70 each time.

Consider `COc1cc(C(=O)NCC(O)(c2cc(F)nc(F)c2)c2cc3c(c(-c4cccc(Cl)c4Cl)n2)OC[C@]3(C)C(N)=O)cc2cn(C3CC3)nc12` (stereo partly shown) [Example 499], for which the pEC50 (in assay [1]; in the assay with hMPV A2 TN/94-49) was above 6.70 throughout.

As to `COc1cc(C(=O)NC[C@@](O)(c2ccccc2)c2cc3c(c(-c4cc(F)c(F)cc4F)n2)OC[C@]3(C)C(N)=O)cc2cc(Cl)cnc12` [Example 198], the pEC50 (in assay [1]; in the assay with hMPV A2 TN/94-49) was above 6.70 throughout.

As to `COc1cc(C(=O)NC[C@@](O)(c2cccc(F)n2)c2cc3c(c(-c4cc(Cl)c(F)cc4F)n2)OC[C@]3(C)C(N)=O)cn2cc(C3CC3)nc12` [Example 154], the pEC50 (in assay [1]; with hMPV A2 TN/94-49) was above 6.70 in each case.

With `COc1cc(C(=O)NC[C@@](O)(c2ccccc2)c2cc3c(c(-c4cc(C(F)(F)F)c(F)cc4F)n2)OC[C@]3(C)C(N)=O)cc2cn(C3(F)CC3)nc12` [Example 303], the pEC50 (in assay [1]; with hMPV A2 TN/94-49) was above 6.70 in each case.

On to `COc1cc(C(=O)NC[C@@](O)(c2ccccc2)c2cc3c(c(-c4cccc(Cl)c4Cl)n2)OC[C@]3(C)C(N)=O)cc2oc(C3CC3)nc12` [Example 96], for which the pEC50 (in assay [1]; with hMPV A2 TN/94-49) was above 6.70 in each case.

`COc1cc(C(=O)NC[C@](O)(c2cc3c(c(-c4cc(Cl)c(F)cc4F)n2)OC[C@]3(C)C(N)=O)c2nccn2C)cc2cn(C3CC3)nc12` [Example 464]: the negative-log EC50 (pEC50) (in assay [1]; in the assay on hMPV A2 TN/94-49) was below 6.70 throughout.

For the compound `C[C@]1(C(N)=O)COc2c1cc([C@@](O)(CNC(=O)c1ccc3nc(C4CC4)oc3c1)c1cccc(F)c1)nc2-c1cc(C(F)(F)F)c(F)cc1F` [Example 308], the pEC50 in assay [1] is above 6.70; in the assay on hMPV A2 TN/94-49 it was below 6.70.

On to `COc1cc(C(=O)NC[C@@](O)(c2cccc(F)c2)c2cc3c(c(-c4ccc5c(c4Cl)OC(F)(F)O5)n2)OC[C@]3(C)C(N)=O)cc2oc(C)nc12` [Example 285], for which the pEC50 (in assay [1]; in the assay with hMPV A2 TN/94-49) was above 6.70 throughout.

For the compound `COc1cc(C(=O)NC[C@@](O)(c2ccccc2)c2cc3c(c(-c4cc(Cl)c(F)cc4F)n2)OC[C@]3(C)C(N)=O)cc2oc(N)nc12` [Example 237], the pEC50 (in assay [1]; with hMPV A2 TN/94-49) was above 6.70 throughout.

In the case of `C[C@]1(C(N)=O)COc2c1cc([C@@](O)(CNC(=O)c1cc(OC3CC3)c3nn(C4CC4)cc3c1)c1ccccc1)nc2-c1cc(Cl)c(F)cc1F` [Example 98], the pEC50 (in assay [1]; in the assay on hMPV A2 TN/94-49) was above 6.70 in each case.

As to `COc1cc(C(=O)NC[C@](O)(c2cccc(F)c2)c2cc3c(c(-c4cc(F)c(F)cc4C(N)=O)n2)OC[C@]3(C)C(N)=O)cc2cn(C3(F)CC3)nc12` [Example 406], the pEC50 (in assay [1]; in the assay on hMPV A2 TN/94-49) was below 6.70 each time.

On to `C[C@]1(C(N)=O)COc2c1cc([C@@](O)(CNC(=O)c1ccc3nn(C4CC4)cc3c1)c1ccccc1)nc2-c1cc(Cl)c(F)cc1F` [Example 101], for which the pEC50 (in assay [1]; with hMPV A2 TN/94-49) was above 6.70 in each case.

Take `[2H]C([2H])([2H])NC(=O)[C@@]1(C)COc2c1cc([C@@](O)(CNC(=O)c1cc(OC)c3nc(C4CC4)oc3c1)c1ccccc1)nc2-c1cc(Cl)c(F)cc1F` [Example 110]: the pEC50 (in assay [1]; in the assay with hMPV A2 TN/94-49) was above 6.70 throughout.

Turning to `COc1cc(C(=O)NC[C@@](O)(c2cccc(F)c2)c2cc3c(c(-c4cc(C(F)(F)F)c(F)cc4F)n2)OC[C@]3(C)C(N)=O)cc2cn(C(F)F)nc12` [Example 301], the pEC50 (in assay [1]; in the assay with hMPV A2 TN/94-49) was above 6.70 in each case.

For `COc1cc(C(=O)NC[C@](O)(c2cccc(F)c2)c2cc3c(c(-c4ccc(C(C)(C)O)cc4)n2)OC[C@]3(C)C(N)=O)cc2cn(C3(F)CC3)nc12` [Example 398], the pEC50 (in assay [1]; with hMPV A2 TN/94-49) was below 6.70 in each case.

On to `Cc1nc2ccc(C(=O)NC[C@@](O)(c3ccccc3)c3cc4c(c(-c5cc(F)c(F)cc5F)n3)OC[C@]4(C)C(N)=O)cc2o1` [Example 192], for which the pEC50 (in assay [1]; in the assay with hMPV A2 TN/94-49) was above 6.70 throughout.

Regarding `C[C@]1(C(N)=O)COc2c1cc([C@@](O)(CNC(=O)c1ccc3nc(C4(F)CC4)oc3c1)c1ccccc1)nc2-c1cc(Cl)c(F)cc1F` [Example 219], the pEC50 (in assay [1]; with hMPV A2 TN/94-49) was above 6.70 each time.

`COc1cc(C(=O)NC[C@@](O)(c2ccnc(C#N)c2)c2cc3c(c(-c4cc(Cl)c(F)cc4F)n2)OC[C@]3(C)C(N)=O)cc2cn(C3CC3)nc12` [Example 501]: the pEC50 (in assay [1]; with hMPV A2 TN/94-49) was above 6.70 in each case.

For the compound `COc1cc(C(=O)NCC(O)(c2cc(F)nc(F)c2)c2cc3c(c(-c4cccc(Cl)c4Cl)n2)OC[C@]3(C)C(N)=O)cc2cn(C(F)F)nc12` (stereo partly shown) [Example 500], the negative-log EC50 (pEC50) (in assay [1]; in the assay with hMPV A2 TN/94-49) was above 6.70 throughout.

For `COc1cc(C(=O)NC[C@@](O)(c2ccccc2)c2cc3c(c(-c4ccc(S(C)(=O)=O)cc4F)n2)OC[C@]3(C)C(N)=O)cc2cn(C3(F)CC3)nc12` [Example 371], the pEC50 in assay [1] is above 6.70; in the assay on hMPV A2 TN/94-49, below 6.70.

For the compound `COc1cc(C(=O)NC[C@@](O)(c2cccc(F)c2)c2cc3c(c(-c4cccc(Cl)c4Cl)n2)OC[C@]3(C)C(N)=O)cc2cc(C3CC3)nn12` [Example 336], the pEC50 (in assay [1]; in the assay on hMPV A2 TN/94-49) was above 6.70 in each case.
